Assay results reported in patent US20260013502A1, “METHOD FOR TERMINATING COVER CROP GROWTH” (SUMITOMO CHEMICAL COMPANY, LIMITED, priority 2022, published 2026).
“And” between values parts separate entries of the source, which are not always exact repeats. Equal entries are not always repeated. Structures can show the parent of a compound that is named as a salt.

Key:
radish (Tillage Radish) = experiment: Example 2: outdoor boom-sprayer foliar application to overwintered radish at bolting stage; assay type: in vivo, Raphanus sativus; conditions: 20 g/ha epyrifenacil, EC 55 g/L, 0.5% Agri-Dex + 1% ammonium sulfate, 150 L/ha
Description: At the bolting stage of radish (Tillage Radish) seeded in the autumn and overwintered outdoors after soybean cultivation, epyrifenacil emulsifiable concentrate (55 g/L) was diluted with water containing 0.5% (v/v) adjuvant Agri-Dex+1% (w/v) ammonium sulfate, and the radish is subjected to foliar application using a boom sprayer at a spray volume of 150 L/ha to deliver 20 g/ha of epyrifenacil.

[1] = test system: cereal rye (Secale cereale); experiment: Example 9: outdoor pot test, foliar application, termination of cereal rye growth; assay type: in vivo; conditions: glyphosate-potassium salt 1,543 g/ha; for Growth termination date / Date at the beginning of the onset of effect: cereal rye, outdoors, applied 24 days after seeding, epyrifenacil/saflufenacil 20 g/ha; for Growth termination date: death of terminal and lateral buds in all 7 pots; for Date at the beginning of the onset of effect: visual change in leaf color in all 7 pots, day relative to application; for Incremental dry matter weight: cereal rye above-ground parts, average dry matter weight at growth termination minus average untreated dry matter weight 24 days after seeding (7 pots), epyrifenacil 20 g/ha
Description: A plastic pot was filled with soil, and cereal rye (Secale cereale) was seeded and grown outdoors. Twenty-four days after seeding, RoundupPowerMax was diluted with water, and then the cereal rye was subjected to foliar application from above using an automatic sprayer at a spray volume of 200 L/ha to achieve an application rate of 1,543 g/ha as glyphosate-potassium salt.
At the same time, the cereal rye was similarly seeded in another plastic pot and grown. Twenty-four days after seeding, epyrifenacil emulsifiable concentrate (55 g/L) or saflufenacil suspension (341 g/L) was diluted with water containing 1% (v/v) adjuvant Agri-Dex, and then the cereal rye was subjected to foliar application from above using an automatic sprayer at a spray volume of 200 L/ha to achieve an application rate of 20 g/ha.
At the same time, the cereal rye was similarly seeded in another plastic pot and grown. Twenty-four days after seeding, the above-ground parts were harvested and the dry matter weight (hereinafter referred to as untreated dry matter weight) was measured.
The cereal rye applied with the herbicide was grown outdoors after application with the herbicide, and in case the growth was terminated, the above-ground parts were harvested at termination of the growth and the dry matter weight was measured. In this test, the growth was judged to be terminated when death of terminal and lateral buds was visually confirmed. The date at the beginning of the onset of effect, the growth termination date, and the dry matter weight at the time of growth termination are shown in Table 3. The onset of the effect was judged by visually observing the change in leaf color. Application with each herbicide was performed using seven pots. The date at the beginning of the onset of effect and the growth termination date in the table were dates on which the onset of effect and growth termination were confirmed in all seven pots, respectively. The incremental dry matter weight was the value calculated by the following formula (1).
Incremental dry matter weight=average dry matter weight at the time of growth termination−average untreated dry matter weight 24 days after seeding Formula (1): • Average dry matter weight at the time of growth termination: average value of dry matter weights of 7 pots at the time of growth termination • Average untreated dry matter weight 24 days after seeding: average value of untreated dry matter weights of 7 pots

[2] = test system: cereal rye (Secale cereale); experiment: Example 1: outdoor boom-sprayer foliar application to overwintered cereal rye at heading stage; assay type: in vivo; conditions: 40 g/ha epyrifenacil, EC 55 g/L, 0.5% MSO + 1% ammonium sulfate, 189 L/ha
Description: At the heading stage of cereal rye (Secale cereale) seeded in the autumn and overwintered outdoors after corn cultivation, epyrifenacil emulsifiable concentrate (55 g/L) was diluted with water containing 0.5% (v/v) adjuvant MSO+1% (w/v) ammonium sulfate, and the cereal rye is subjected to foliar application using a boom sprayer at a spray volume of 189 L/ha to deliver 40 g/ha of epyrifenacil.

barley (Hordeum vulgare) = experiment: Example 3: outdoor boom-sprayer foliar application to overwintered barley at internode elongation stage; assay type: in vivo; conditions: 30 g/ha epyrifenacil, EC 55 g/L, 0.5% Agri-Dex + 1% ammonium sulfate, 250 L/ha
Description: At the internode elongation stage of barley (Hordeum vulgare) seeded in the autumn and overwintered outdoors in a corn cultivation trace, epyrifenacil emulsifiable concentrate (55 g/L) was diluted with water containing 0.5% (v/v) adjuvant Agri-Dex+1% (w/v) ammonium sulfate, and the barley is subjected to foliar application using a boom sprayer at a spray volume of 250 L/ha to deliver 30 g/ha of epyrifenacil.

[3] = listed as glyphosate-potassium salt

Row | Compound | Death of the radish observed (radish (Tillage Radish)) | Growth termination date [1] | Date at the beginning of the onset of effect [1] | Death of the cereal rye observed [2] | Death of the barley observed (barley (Hordeum vulgare)) | Incremental dry matter weight [1] | Incremental dry matter weight [1, 3] | Growth termination date [1, 3]
1 | CCOC(=O)COc1ncccc1Oc1cc(-n2c(=O)cc(C(F)(F)F)n(C)c2=O)c(F)cc1Cl [Epyrifenacil, epyrifenacil] | 3 days after application | 7 Days after application and 7 Days Days after application | Day after | 4 days after application | 4 days after application | – | – | –
2 | O=C(O)CNCP(=O)(O)O [Glyphosate-potassium salt, glyphosate-potassium salt] | – | 21 Days Days after application | 7 Days after Days after application | – | – | −42 Kg/ha | reduced biomass | 21 Days after application
